Test results reported in patent US6143780A, “N-arylmethylthioanilide compounds useful for the inhibition of the replication of HIV” (Uniroyal Chemical Company, Inc., priority 1999, dated 2000).
Several values for one entry are separate records, joined by “and”; a condition that tells them apart may be missing. Equal values may be shown once. Read-outs that look alike come from different tables or passages of the source.

Columns and labels:
Assay type in all cases: cell-based
[1] = tested on: HIV-1 (IIIB); test: inhibition of HIV-1(IIIB) (WT) induced syncytium formation in CEM cells
From the text: (§1) CEM cells were obtained from the American Tissue Cell Culture Collection (Rockville, Md.) . HIV-1 (IIIB) was originally obtained from the culture supernatant of persistently HIV-1-infected H9 cells and was provided by R. C. Gallo and M. Popovic (National Cancer Institute, National Institutes of Health, Bethesda, Md.).
(§2) CEM cells were suspended at ≈300,000 cells per ml of culture medium and infected with approximately 100 CCID50 (CCID50 being the 50% cell culture infective dose) of HIV-1(IIIB) (designated as "WT" in Table 3) or one of the HIV-1 RT mutant strains described above. Then 100 μl of the infected cell suspensions was added to 200 μl microtiter plate wells containing 100 μl of appropriate serial (5-fold) dilutions of the test compounds. The inhibitiory effect of the test compounds on HIV-1 induced syncytium formation in CEM cells was examined microscopically on day 4 post infection. The 50% effective concentration (EC50) was defined as the test compound concentration that inhibits syncytium formation in the HIV-1-infected cell cultures by 50%.

[2] = tested on: 138-Lys; test: inhibition of syncytium formation in CEM cells, HIV-1 RT mutant 138-Lys; settings: Human immunodeficiency virus 1, CCRF-CEM, 96 h, read-out: EC50 138-Lys
From the text: as §1
(§3) The selection and characterization of the HIV-1 RT mutant strains were done as follows: HIV-1/100-Ile ("100-Ile") was selected for resistance against TIBO R82150 as described in Balzarini et al, Virology 192: 246-253 (1993); HIV-1/103-Asn ("103-Asn") was selected for resistance against TIBO R82913 as described in Balzarini et al, Virology 192: 246-253 (1993); HIV-1/106-Ala ("106-Ala") was selected for resistance against nevirapine as described in Balzarini et al, J. Virol. 67: 5353-5359 (1993); HIV-1/Lys-138 ("Lys-138") was selected for resistance against TSAO-m^3T as described in Balzarini et al, Virology 192: 246-253 (1993) and Balzarini et al, Proc. Nat. Acad. Sci. USA 90: 6952-6956 (1993); HIV-1/181-Cys ("181-Cys") was selected for resistance against pyridinone L-697,661 as described in Balzarini et al, Virology 192: 246-253 (1993); and HIV-1/188-His ("188-His") was selected for resistance against HEPT as described in Balzarini et al, Mol. Pharmocol. 44: 694-701 (1993). 188-His was then further converted to HIV-1/188-Leu ("188-Leu") upon further passage in cell culture in the absence of the HEPT. HIV-1/101-Glu ("101-Glu") and HIV-1/190-Glu ("190-Glu") were selected for resistance against the thiocarboxanilide derivative designated as UC38 as described in Balzarini et al, Antiviral Research 27: 219-236 (1995). HIV-1/184-Ile ("184-Ile") was selected for resistance against the combination of 3TC and TSAO-m^3 T as described in Balzarini et al, Molecular Pharm. 49: 882-890 (1996). HIV-1/184-Val ("184-Val") was selected for resistance against 3TC as described in Balzarini et al, Molecular Pharm. 49: 882-890 (1996).
as §2

[3] = tested on: HIV-1/184-Val; test: inhibition of syncytium formation in CEM cells, HIV-1 RT mutant 184-Val; settings: Human immunodeficiency virus 1, CCRF-CEM, 96 h, read-out: EC50 184-Val
From the text: as §1, §3, §2

[4] = tested on: HIV-1/181-Cys; test: inhibition of syncytium formation in CEM cells, HIV-1 RT mutant 181-Cys; settings: Human immunodeficiency virus 1, CCRF-CEM, 96 h, read-out: EC50 181-Cys
From the text: as §1, §3, §2

[5] = tested on: 103-Ala; test: inhibition of syncytium formation in CEM cells, HIV-1 RT mutant 103-Ala; settings: Human immunodeficiency virus 1, CCRF-CEM, 96 h, read-out: EC50 103-Ala
[6] = tested on: HIV-1/184-Ile; test: inhibition of syncytium formation in CEM cells, HIV-1 RT mutant 184-Ile; settings: Human immunodeficiency virus 1, CCRF-CEM, 96 h, read-out: EC50 184-IIe
From the text: as §1, §3, §2

[7] = tested on: HIV-1/190-Glu; test: inhibition of syncytium formation in CEM cells, HIV-1 RT mutant 190-Glu; settings: Human immunodeficiency virus 1, CCRF-CEM, 96 h, read-out: EC50 190-Glu
From the text: as §1, §3, §2

[8] = tested on: HIV-1/188-His; test: inhibition of syncytium formation in CEM cells, HIV-1 RT mutant 188-His; settings: Human immunodeficiency virus 1, CCRF-CEM, 96 h, read-out: EC50 188-His
From the text: as §1, §3, §2

[9] = tested on: HIV-1/100-Ile; test: inhibition of syncytium formation in CEM cells, HIV-1 RT mutant 100-Ile; settings: Human immunodeficiency virus 1, CCRF-CEM, 96 h, read-out: EC50 100-Ile
From the text: as §1, §3, §2

[10] = tested on: HIV-1/101-Glu; test: inhibition of syncytium formation in CEM cells, HIV-1 RT mutant 101-Glu; settings: Human immunodeficiency virus 1, CCRF-CEM, 96 h, read-out: EC50 101-Glu
From the text: as §1, §3, §2

[11] = Table 2, day 4 post infection, replicate values, read-out: EC50, Activity Against HIV-1 (IIIB)
[12] = Human immunodeficiency virus 1, IIIB, CCRF-CEM, 96 h, Table 2, day 4 post infection, replicate values, read-out: EC50, Activity Against HIV-1 (IIIB)

Structure (SMILES) | EC50 [1, 11] | EC50 [1, 12] [nM] | further results
Cc1occc1C(=O)Nc1ccc(Cl)c(COc2ccccc2)c1 [Compound 1] | 2380 nM and 1550 nM and 4810 nM |  | 
Cc1occc1C(=S)Nc1ccc(Cl)c(COc2ccccc2)c1 [Compound 2] | 228 nM and 161 nM and 98.6 nM and 67.6 nM |  | 
Cc1occc1C(=S)Nc1ccc(Cl)c(COc2cccc(C(F)(F)F)c2)c1 [Compound 5] | 4110 nM and 3840 nM | 3880 | EC50 ([1]; Human immunodeficiency virus 1, IIIB, CCRF-CEM, 96 h, Table 3, HIV-1(IIIB), day 4 post infection, read-out: EC50 WT): 0.5 µg/mL; EC50 [2]: 1.73 µg/mL; EC50 [3]: 0.93 µg/mL; EC50 [4]: 0.33 µg/mL; EC50 [5]: > 2 µg/mL; EC50 [6]: > 2 µg/mL; EC50 [7]: > 2 µg/mL; EC50 [8]: > 2 µg/mL; EC50 [9]: > 2 µg/mL; EC50 [10]: > 2 µg/mL
Cc1ccccc1OCc1cc(NC(=O)c2ccoc2C)ccc1Cl [Compound 9] | 13500 nM and 35000 nM |  | 
Cc1occc1C(=O)Nc1ccc(Cl)c(COc2ccc(F)cc2)c1 [Compound 10] | 4260 nM | 4150 | 
COc1ccccc1OCc1cc(NC(=O)c2ccoc2C)ccc1Cl [Compound 12] | 488 nM and 379 nM and 899 nM |  | 
Cc1occc1C(=O)Nc1ccc(Cl)c(COc2ccccc2[N+](=O)[O-])c1 [Compound 13] | 301 nM and 208 nM and 358 nM |  | 
Cc1occc1C(=O)Nc1ccc(Cl)c(COc2ccccc2F)c1 [Compound 14] | 771 nM and 395 nM and 255 nM |  | 
Cc1occc1C(=O)Nc1ccc(Cl)c(COc2c(F)cccc2F)c1 [Compound 20] | 799 nM | 496 | 
Cc1occc1C(=O)Nc1ccc(Cl)c(COc2cccc([N+](=O)[O-])c2)c1 [Compound 26] | 4140 nM and 3660 nM | 4610 | 
COc1cccc(OC)c1OCc1cc(NC(=S)c2ccoc2C)ccc1Cl [Compound 28] | 6710 nM and 7560 nM and 19600 nM and 10100 nM and 11000 nM |  | 
Cc1occc1C(=O)Nc1ccc(Cl)c(COc2ccccc2C#N)c1 [Compound 29] | 3480 nM and 3400 nM and 3100 nM and 3760 nM | 3390 | 
COc1cccc(F)c1OCc1cc(NC(=O)c2ccoc2C)ccc1Cl [Compound 31] | 77.8 nM and 124 nM and 213 nM |  | 
CC(=O)Oc1ccccc1OCc1cc(NC(=S)c2ccoc2C)ccc1Cl [Compound 33] | 1390 nM and 2830 nM and 2670 nM |  | 
Cc1occc1C(=O)Nc1ccc(Cl)c(COc2ccccc2Br)c1 [Compound 35] | 2290 nM and 3140 nM and 1230 nM |  | 
CCOc1ccccc1OCc1cc(NC(=S)c2ccoc2C)ccc1Cl [Compound 36] | 377 nM and 124 nM and 788 nM |  | 

Structure (SMILES) | EC50 [1, 11] | EC50 [1, 12] [nM] | further results
CCc1ccccc1OCc1cc(NC(=O)c2ccoc2C)ccc1Cl [Compound 38] | 2880 nM and 1450 nM |  | 
Cc1occc1C(=O)Nc1ccc(Cl)c(COc2c(F)ccc(F)c2F)c1 [Compound 39] | 102 nM and 50.7 nM and 113 nM |  | 
Cc1occc1C(=O)Nc1ccc(Cl)c(COc2ccccc2C(F)(F)F)c1 [Compound 41] | 761 nM and 1110 nM |  | 
Cc1occc1C(=O)Nc1ccc(Cl)c(COc2ccc(F)cc2Cl)c1 [Compound 42] | 4660 nM and 18200 nM |  | 
Cc1occc1C(=S)Nc1ccc(Cl)c(COc2ccccc2-c2ccccc2)c1 [Compound 48] | 3110 nM and 2750 nM and 5410 nM |  | 
Cc1occc1C(=S)Nc1ccc(Cl)c(COc2ccccc2C(C)(C)C)c1 [Compound 49] | 384 nM and 599 nM and 1130 nM |  | 
CCON=Cc1ccccc1OCc1cc(NC(=S)c2ccoc2C)ccc1Cl [Compound 50] | 1070 nM |  | 
COC(=O)c1ccccc1OCc1cc(NC(=S)c2ccoc2C)ccc1Cl [Compound 51] | 1000 nM and 226 nM and 915 nM and 568 nM |  | 
Cc1occc1C(=O)Nc1ccc(Cl)c(COc2ccccc2N)c1 [Compound 52] | 13700 nM and 16200 nM |  | 
CC(=O)c1ccccc1OCc1cc(NC(=S)c2ccoc2C)ccc1Cl [Compound 54] | 6670 nM and 15300 nM |  | 
CCCOc1ccccc1OCc1cc(NC(=S)c2ccoc2C)ccc1Cl [Compound 55] | 10000 nM and 9000 nM and 3730 nM and 4260 nM |  | 
CC(=NN(C)C)c1ccccc1OCc1cc(NC(=O)c2ccoc2C)ccc1Cl [Compound 56] | 2910 nM and 3580 nM | 2230 | 
Cc1occc1C(=S)Nc1ccc(Cl)c(COc2ccccc2C=NN(C)C)c1 [Compound 57] | 214 nM and 76.6 nM and 79.2 nM |  | 
Cc1occc1C(=O)Nc1ccc(Cl)c(COc2c(F)c(F)cc(F)c2F)c1 [Compound 58] | 281 nM | 475 | 
Cc1occc1C(=S)Nc1ccc(Cl)c(COc2c(F)c(F)c(F)c(F)c2F)c1 [Compound 59] | 117 nM | 199 | 
Cc1occc1C(=S)Nc1ccc(Cl)c(COc2c(F)c(F)cc(F)c2F)c1 [Compound 60] | 10.6 nM and 4.62 nM |  | 

Continued, in another order:

EC50 [1, 11] | EC50 [1, 12] [nM] | Structure (SMILES) | further results
 | 2.05 | Cc1occc1C(=O)Nc1ccc(Br)c(COc2c(F)ccc(F)c2F)c1 [Compound 61] | 
195 nM and 817 nM and 552 nM and 793 nM and 554 nM |  | Cc1occc1C(=O)Nc1ccc(Br)c(COc2ccccc2C(F)(F)F)c1 [Compound 62] | 
7.55 nM | 7.45 | COc1cccc(F)c1OCc1cc(NC(=O)c2ccoc2C)ccc1Br [Compound 63] | 
0.281 nM | 0.29 | Cc1occc1C(=S)Nc1ccc(Br)c(COc2ccccc2C(F)(F)F)c1 [Compound 65] | 
359 nM and 317 nM and 244 nM |  | Cc1occc1C(=O)Nc1ccc(Cl)c(OCc2ccccc2F)c1 [Compound 69] | 
9.67 nM | 12.2 | Cc1occc1C(=S)Nc1ccc(Cl)c(OCc2ccccc2F)c1 [Compound 70] | 
342 nM and 128 nM and 396 nM |  | Cc1occc1C(=S)Nc1ccc(Cl)c(CSc2ccccc2F)c1 [Compound 71] | 
14900 nM and 12100 nM |  | Cc1occc1C(=O)Nc1ccc(Cl)c(CSc2ccccc2F)c1 [Compound 72] | 
131000 nM and 21200 nM |  | COC(=O)c1sccc1OCc1cc(NC(=O)c2ccoc2C)ccc1Cl [Compound 73] | 
270 nM and 131 nM and 147 nM |  | COC(=O)c1sccc1OCc1cc(NC(=S)c2ccoc2C)ccc1Cl [Compound 74] | 
588 nM and 1500 nM and 2600 nM |  | Cc1occc1C(=O)Nc1ccc(Cl)c(OCc2sccc2Br)c1 [Compound 75] | 
95.2 nM | 86.1 | Cc1occc1C(=S)Nc1ccc(Cl)c(OCc2sccc2Br)c1 [Compound 76] | 
251 nM and 299 nM and 1110 nM |  | Cc1occc1C(=S)Nc1ccc(Cl)c(CS(=O)(=O)c2ccccc2Cl)c1 [Compound 77] | 
302 nM and 696 nM and 375 nM |  | Cc1occc1C(=S)Nc1ccc(Cl)c(CSc2ncccn2)c1 [Compound 78] | 
2830 nM and 2990 nM and 3300 nM and 1650 nM and 614 nM |  | Cc1occc1C(=O)Nc1ccc(Cl)c(CSc2ccccn2)c1 [Compound 79] | 
150 nM | 218 | Cc1occc1C(=S)Nc1ccc(Cl)c(CSc2ccccn2)c1 [Compound 80] | 
5500 nM and 3690 nM |  | Cc1occc1C(=O)Nc1ccc(Cl)c(COc2cccnc2)c1 [Compound 81] | 
1460 nM and 3150 nM and 2430 nM |  | Cc1occc1COc1cc(NC(=O)c2ccoc2C)ccc1Cl [Compound 82] | 
13300 nM and 12100 nM | 16500 | Cc1occc1C(=S)Nc1ccc(Cl)c(CSc2ccncc2)c1 [Compound 83] | 
66.1 nM and 255 nM |  | Cc1occc1COc1cc(NC(=S)c2ccoc2C)ccc1Cl [Compound 84] | 
211 nM | 151 | Cc1occc1C(=S)Nc1ccc(Cl)c(COc2cccnc2)c1 [Compound 85] | 
